# Reference: patent US6423376B1, “Tartaric acid diesters as biodegradable surfactants” (Air Products and Chemicals, Inc., priority 2000, dated 2002)
# Structures can show the parent of a compound that is named as a salt.
# Columns and labels:
# [1] = Dynamic surface tension of aqueous solutions, maximum bubble pressure method; assay type: physicochemical; conditions: for limiting γ (0.1 b/s) / limiting γ (1 b/s) / limiting γ (6 b/s) / limiting γ (20 b/s): lowest surface tension in water; for pC20: negative logarithm of molar concentration giving 52.1 dyne/cm at 0.1 b/s; for decrease in the limiting surface tension: in comparison to dipentyl-L-tartrate
# From the text: where R1 and R2 are independently a C4 to C6 alkyl group, but preferably are the same; provided that when the water-based composition is an ink, R1 and R2 are independently a C5 or C6 alkyl group. […] The maximum-bubble-pressure method of measuring surface tension is described in Langmuir 1986, 2, 428-432, which is incorporated by reference.
# In the following Examples dynamic surface tension data were obtained for aqueous solutions of various compounds using the maximum bubble pressure method at bubble rates from 0.1 bubbles/second (b/s) to 20 b/s. […] In practical terms, high bubble rates correspond to high printing speeds in lithographic printing, high spray or roller velocities in coating applications, and rapid application rates for agricultural products.
# Dynamic surface tension data were obtained for a 0.1 wt % aqueous solution of the 9.5 mole ethoxylate of nonylphenol using the maximum bubble pressure method at bubble rates from 0.1 bubbles/second (b/s) to 20 b/s.
# (§1) Solutions of the materials of Examples 1-12 in distilled water were prepared. […] The pC20 value is defined as the negative logarithm of the molar concentration of surfactant required to decrease the surface tension of an aqueous solution to 52.1 dyne/cm, that is, 20 dyne/cm below that of pure water when the measurement is performed at 0.1 b/s. This value is a measure of the efficiency of a surfactant. […] In addition, the relative efficiency of surfactants can be obtained by comparing surface tension reduction of solutions containing the same amount of different surfactants. Such data is given for 0.1 wt % solutions of the tartrates at 1.0 and 6.0 bubbles/second (b/s). The solubility limit was determined by intersection of the linear portion of a surface tension/In concentration curve with the limiting surface tension as is described in many textbooks. The limiting surface tensions at 0.1, 1, 6 and 20 b/s represent the lowest surface tensions in water which can be achieved at the given surface creation rates for a given surfactant regardless of the amount of surfactant used and is used to evaluate the effectiveness of a surfactant. These values give information about the relative ability to a surfactant to reduce surface defects under near-equilibrium conditions (0.1 b/s) through very dynamic conditions (20 b/s). Lower surface tensions would allow the elimination of defects upon application of a formulation onto lower energy surfaces.
# [2] = Foam test based upon ASTM D 1173-53; assay type: physicochemical; conditions: 0.1 wt % solution
# From the text: The foaming properties of a 0.1 wt % solution of the comparative example (nonylphenol 9.5 mole ethoxylate) and various dialkyltartrates (diisopropyl-(D)-tartrate, dibutyl-L-tartrate. diisobutyl-DL-tartrate, di-sec-butyl-DL-tartrate, dipentyl-DL-tartrate, diisoamyl-DL-tartrate, di-(2-methyl-butyl)-DL-tartrate, dineopentyl-DL-tartrate, dihexyl-DL-tartrate, di-(4-methyl-2-pentyl)-DL-tartrate, dibenzyl-DL-tartrate and di-(2-ethyl-hexyl)-DL-tartrate) were examined using a procedure based upon ASTM D 1173-53. In this test, a 0.1 wt % solution of the surfactant is added from an elevated foam pipette to a foam receiver containing the same solution. The foam height is measured at the completion of the addition (“Initial Foam Height”) and the time required for the foam to dissipate at the air-liquid interface (“Time to 0 Foam”) is recorded. This test provides a comparison between the foaming characteristics of various surfactants. In general, in coatings, inks, adhesives and agricultural formulations, foam is undesirable because is complicates handling and can lead to coating and print defects, and to inefficient application of agricultural materials.
# [3] = Solubility limit in water from surface tension/ln concentration curve; assay type: physicochemical; conditions: in distilled water
# Protocol: as §1
Compound,initial foam [2],time to zero foam [2],solubility limit [3],γ (0.1 wt % solution) (1 b/s) ([1]; 1 b/s),γ (0.1 wt % solution) (6 b/s) ([1]; 6 b/s),limiting γ (0.1 b/s) ([1]; 0.1 b/s),limiting γ (1 b/s) ([1]; 1 b/s),limiting γ (6 b/s) ([1]; 6 b/s),limiting γ (20 b/s) ([1]; 20 b/s),pC20 [1],time to zero foam ([2]; unit not given),other results
9.5 mole ethoxylate of nonylphenol [reference compound],4.5 cm,>300 s,,,,,,,,,,"Dynamic Surface Tension (0.1 b/s) ([1]; 0.1 wt % aqueous solution, 0.1 b/s): 33.2 dyne/cm; Dynamic Surface Tension (1 b/s) ([1]; 0.1 wt % aqueous solution, 1 b/s): 36.7 dyne/cm; Dynamic Surface Tension (6 b/s) ([1]; 0.1 wt % aqueous solution, 6 b/s): 44.3 dyne/cm; Dynamic Surface Tension (15 b/s) ([1]; 0.1 wt % aqueous solution, 15 b/s): 52.8 dyne/cm; Dynamic Surface Tension (20 b/s) ([1]; 0.1 wt % aqueous solution, 20 b/s): 56.2 dyne/cm"
"CC(C)(C)COC(=O)C(O)C(O)C(=O)OCC(C)(C)C (racemic) (as salt: tartrate) [Example 8, Dineopentyl-DL-tartrate]",,,,,,,,,,,,melting point: 75 °C
"CCC(C)OC(=O)C(O)C(O)C(=O)OC(C)CC (racemic) [Example 4, Di-sec-butyl-DL-tartrate]",1.7 cm,0.4 s,1.7 Weight %,52.2 Dyne/cm,53.2 Dyne/cm,35.1 Dyne/cm,35.0 Dyne/cm,35.0 Dyne/cm,36.0 Dyne/cm,2.5,,
"CC(C)CCOC(=O)C(O)C(O)C(=O)OCCC(C)C (racemic) [Example 6, Diisoamyl-DL-tartrate]",0 cm,,0.1 Weight %,35.4 Dyne/cm,36.7 Dyne/cm,34.9 Dyne/cm,35.7 Dyne/cm,37.2 Dyne/cm,40.3 Dyne/cm,3.7,0,decrease in the limiting surface tension ([1]; 20 b/s): 1.3 dyne/cm
"CC(C)(C)COC(=O)C(O)C(O)C(=O)OCC(C)(C)C (racemic) [Example 8, Dineopentyl-DL-tartrate]",0 cm,,0.2 Weight %,38.7 Dyne/cm,39.8 Dyne/cm,35.1 Dyne/cm,35.5 Dyne/cm,36.1 Dyne/cm,38.4 Dyne/cm,3.5,0,decrease in the limiting surface tension ([1]; 20 b/s): 3.2 dyne/cm
"CC(C)CC(C)OC(=O)C(O)C(O)C(=O)OC(C)CC(C)C (racemic) [Example 10, Di(4-methyl-2-pentyl)-DL-tartrate]",0.8 cm,0.3 s,0.02 Weight %,42.2 Dyne/cm,46.8 Dyne/cm,41.3 Dyne/cm,49.9 Dyne/cm,56.1 Dyne/cm,68.2 Dyne/cm,3.7,,
"O=C(OCc1ccccc1)C(O)C(O)C(=O)OCc1ccccc1 (racemic) [Example 11, Dibenzyl-DL-tartrate]",1.3 cm,0.1 s,0.05 Weight %,67.8 Dyne/cm,70.0 Dyne/cm,64.0 Dyne/cm,68.1 Dyne/cm,69.8 Dyne/cm,72.5 Dyne/cm,1.0,,
"CC(C)OC(=O)C(O)C(O)C(=O)OC(C)C [Example 1, Diisopropyl-D-tartrate]",,,>5% Weight %,,,,,,,,,

# Second part, led by results:
initial foam [2],time to zero foam [2],solubility limit [3],γ (0.1 wt % solution) (1 b/s) ([1]; 1 b/s),γ (0.1 wt % solution) (6 b/s) ([1]; 6 b/s),limiting γ (0.1 b/s) ([1]; 0.1 b/s),limiting γ (1 b/s) ([1]; 1 b/s),limiting γ (6 b/s) ([1]; 6 b/s),limiting γ (20 b/s) ([1]; 20 b/s),pC20 [1],time to zero foam ([2]; unit not given),Compound,other results
,,1.1 Weight %,,,,,,,,,"CCCCOC(=O)C(O)C(O)C(=O)OCCCC (racemic) [Example 2, Dibutyl-L-tartrate]",
0.5 cm,0.3 s,0.7 Weight %,50.6 Dyne/cm,51.4 Dyne/cm,38.7 Dyne/cm,39.3 Dyne/cm,39.8 Dyne/cm,40.8 Dyne/cm,2.6,,"CC(C)COC(=O)C(O)C(O)C(=O)OCC(C)C (racemic) [Example 3, Diisobutyl-DL-tartrate]",
0 cm,,0.1 Weight %,36.8 Dyne/cm,37.8 Dyne/cm,35.9 Dyne/cm,36.8 Dyne/cm,37.8 Dyne/cm,41.6 Dyne/cm,3.3,0,"CCCCCOC(=O)C(O)C(O)C(=O)OCCCCC (racemic) [Example 5, Dipentyl-DL-tartrate]",
0 cm,,0.1 Weight %,39.0 Dyne/cm,39.8 Dyne/cm,35.6 Dyne/cm,36.0 Dyne/cm,36.0 Dyne/cm,38.5 Dyne/cm,3.2,0,"CCC(C)COC(=O)C(O)C(O)C(=O)OCC(C)CC (racemic) [Example 7, Di(2-methyl-butyl)-DL-tartrate]",
1.3 cm,0.1 s,0.01 Weight %,59.0 Dyne/cm,65.9 Dyne/cm,40.5 Dyne/cm,59.0 Dyne/cm,65.9 Dyne/cm,70.0 Dyne/cm,3.8,,"CCCCCCOC(=O)C(O)C(O)C(=O)OCCCCCC (racemic) [Example 9, Dihexyl-DL-tartrate]",
0 cm,,0.06 Weight %,69.8 Dyne/cm,70.5 Dyne/cm,66.7 Dyne/cm,69.8 Dyne/cm,70.5 Dyne/cm,71.3 Dyne/cm,1.6,0,"CCCCC(CC)COC(=O)C(O)C(O)C(=O)OCC(CC)CCCC (racemic) [Example 12, Di(2-ethylhexyl)-DL-tartrate]","limiting γ (0.1 b/s) at 5 wt. % ([1]; 5 wt. %, cloudy mixture, 0.1 b/s): 38.5 dyne/cm; limiting γ (1 b/s) at 5 wt. % ([1]; 5 wt. %, cloudy mixture, 1 b/s): 40.3 dyne/cm; limiting γ (6.0 b/s) at 5 wt. % ([1]; 5 wt. %, cloudy mixture, 6.0 b/s): 41.2 dyne/cm; limiting γ (20 b/s) at 5 wt. % ([1]; 5 wt. %, cloudy mixture, 20 b/s): 44.8 dyne/cm"
